Marks after values point to notes of the source that are not given here.
Key:
AAMU-Ab = assay: Competitive antigen ELISA, cross-reactivity of AAMU-Ab; type: binding, rabbit; conditions: for % Cross-Reaction AAMU-Ab: competitive antigen ELISA, 0 = absence of inhibition or inhibition no higher than 40% at highest concentration tested (5×10^−3 M)
Procedure: (§1) Buffers and water without additives are filtered through millipore filters and kept for 1 week. BSA, antibodies, Tween™ 20 and horse radish peroxidase conjugates are added to these buffers and water just prior to use. Urine samples are usually collected 4 hours after drinking a cup of coffee (instant or brewed with approximately 100 mg of caffeine per cup) and stored at −80° C. The urine samples are diluted 10 times with sodium phosphate buffer (620 mosm, pH 7.50) and are subsequently diluted with water to give concentrations of AAMU and 1X no higher than 3×10^−6 M in the ELISA. All the pipettings are done with an eight-channel pipette, except those of the antibody and sample solutions. Starting with the last well, 100 μL of a carbonate buffer (100 mM, pH 9.6) containing 2.5 μg mL-^1 antibodies are added to each well. After 90 min. at room temperature, the wells are washed three times with […] of TPB: isotonic sodium phosphate buffer (310 mosm, pH 7.50) containing 0.05% Tween™ 20.
(§2) After the initial wash, unoccupied sites are blocked by incubation for 90 min. at room temperature with 100 μL TBP containing 3% BSA. The wells are washed four times with 100 μL TPB. The washing is followed by additions of 50 μL of 12 mg mL^−1 AAMU-HRP or 1X-HRP conjugate in 2×TPB containing 2% BSA, and 50 μL of either water, standard (13 standards; AAMU or 1X, 2×10^−4 to 2×10^−8 M) or sample in duplicate. The microplate is gently shaken with an orbital shaker at room temperature for 3-4 hours. The wells are washed three times with 100 μL TPB containing 1% BSA and three times with water containing 0.05% Tween™ 20. To the washed plate is added 150 μL of a substrate buffer composed of citric acid (25 mM) and sodium phosphate dibasic buffer (50 mM, pH 5.0) containing 0.06% hydrogen peroxide and 0.04% o-phenylenediamine hydrochloride.
(§3) Buffers and water without additives were filtered through millipore filters and kept for 1 week. BSA, antibodies, Tween™ 20 and horse radish peroxidase conjugates were added to these buffers and water just prior to use. Urine samples were usually collected 4 hours after drinking a cup of coffee (instant or brewed with approximately 100 mg of caffeine per cup) and stored at −80° C. They were diluted 10 times with sodium phosphate buffer (620 mosm, pH 7.50) and were subsequently diluted with water to give concentrations of AAMU and 1X no higher than 3×10^−6 M in the ELISA. All the pipettings were done with an eight-channel pipette, except those of the antibody and sample solutions. Starting with the last well, 100 μL of a carbonate buffer (100 mM, pH 9.6) containing 2.5 μg mL-^1 antibodies was pipetted. After 90 min. at room temperature, the wells were washed three times with 100 μL of TPB: isotonic sodium phosphate buffer (310 mosm, pH 7.50) containing 0.05% Tween™ 20.
(§4) After the initial wash, unoccupied sites were blocked by incubation for 90 min. at room temperature with 100 μL TBP containing 3% BSA. The wells were washed four times with 100 μL TPB. This was followed by additions of 50 μL of 12 mg mL^−1 AAMU-HRP or 1X-HRP conjugate in 2×TPB containing 2% BSA, and 50 μL of either water, standard (13 standards; AAMU or 1X, 2×10^−4 to 2×10^−8 M) or sample in duplicate. The microplate was gently shaken with an orbital shaker at room temperature for 3-4 hours. The wells were washed three times with 100 μL with TPB containing 1% BSA and three times with water containing 0.05% Tween™ 20. To the washed plate was added 150 μL of a substrate buffer composed of citric acid (25 mM) and sodium phosphate dibasic buffer (50 mM, pH 5.0) containing 0.06% hydrogen peroxide and 0.04% o-phenylenediamine hydrochloride. After 20 min. at room temperature with shaking, the reaction was stopped with 50 μL of 2.5 N HCl.
(§5) The cross reactivities of AAMU-Ab and 1X-Ab were tested using a wide variety of caffeine metabolites and structural analogs (Table 2 below).

1X-Ab = assay: Competitive antigen ELISA, cross-reactivity of 1X-Ab; type: binding, rabbit; conditions: for % Cross-Reaction 1X-Ab: competitive antigen ELISA, 0 = absence of inhibition or inhibition no higher than 40% at highest concentration tested (5×10^−3 M)
Procedure: as §1, §2, §3, §4, §5

Structure (SMILES): Cn1c(=O)c2c(ncn2C)n(C)c1=O [1,3,7-Trimethyl Xanthine (Caffeine), 1,3,7-Trimethyl Xanthine]
- % Cross-Reaction AAMU-Ab (AAMU-Ab): 0%
- % Cross-Reaction 1X-Ab (1X-Ab): 0%

Structure (SMILES): Cn1c(=O)c2[nH]cnc2n(C)c1=O [1,3-Dimethyl Xanthine (Theophylline), 1,3-Dimethyl Xanthine]
- % Cross-Reaction AAMU-Ab (AAMU-Ab): 0%
- % Cross-Reaction 1X-Ab (1X-Ab): 0.2%

Structure (SMILES): Cn1c(=O)[nH]c2ncn(C)c2c1=O [1,7-Dimethyl Xanthine (Paraxanthine), 1,7-Dimethyl Xanthine]
- % Cross-Reaction AAMU-Ab (AAMU-Ab): 0%
- % Cross-Reaction 1X-Ab (1X-Ab): 0.5%

Structure (SMILES): Cn1c(=O)[nH]c2[nH]c(=O)n(C)c2c1=O [1,7-Dimethyluric acid]
- % Cross-Reaction AAMU-Ab (AAMU-Ab): 0%
- % Cross-Reaction 1X-Ab (1X-Ab): 0%

Structure (SMILES): Cn1c(=O)[nH]c2nc[nH]c2c1=O [1-Methyl Xanthine (1X), 1-Methyl Xanthine]
- % Cross-Reaction AAMU-Ab (AAMU-Ab): 0%
- IC50 (1X-Ab; 1X-Ab, 1X-HRP conjugate, read-out: concentration required for 50% inhibition in the competitive antigen ELISA): 10 µM
- % Cross-Reaction 1X-Ab (1X-Ab): 100%

Structure (SMILES): Cn1c(=O)[nH]c2[nH]c(=O)[nH]c2c1=O [1-Methyluric acid]
- % Cross-Reaction AAMU-Ab (AAMU-Ab): 0%
- % Cross-Reaction 1X-Ab (1X-Ab): 11%

Structure (SMILES): Cn1cnc2c1c(=O)[nH]c(=O)n2C [3,7-Dimethyl Xanthine (Theobromine), 3,7-Dimethyl Xanthine]
- % Cross-Reaction AAMU-Ab (AAMU-Ab): 0%
- % Cross-Reaction 1X-Ab (1X-Ab): 0%

Structure (SMILES): Cn1c(=O)[nH]c(=O)c2[nH]cnc21 [3-Methyl Xanthine]
- % Cross-Reaction AAMU-Ab (AAMU-Ab): 0%
- % Cross-Reaction 1X-Ab (1X-Ab): 0%

Structure (SMILES): CC(=O)Nc1c(N)n(C)c(=O)n(C)c1=O [5-Acetamino-6-amino-1,3-dimethyluracil]
- % Cross-Reaction AAMU-Ab (AAMU-Ab): 0%
- % Cross-Reaction 1X-Ab (1X-Ab): 0%

Structure (SMILES): CC(=O)Nc1c(N)n(C)c(=O)[nH]c1=O [5-Acetamino-6-amino-1-methyluracil]
- IC50 (AAMU-Ab; AAMU-Ab, AAMU-HRP conjugate, read-out: concentration required for 50% inhibition in the competitive antigen ELISA): 1.5 µM
- % Cross-Reaction AAMU-Ab (AAMU-Ab): 100%
- % Cross-Reaction 1X-Ab (1X-Ab): 0%

Structure (SMILES): CC(=O)Nc1c(N)[nH]c(=O)[nH]c1=O [5-Acetamino-6-amino-uracil]
- % Cross-Reaction AAMU-Ab (AAMU-Ab): 0.6%
- % Cross-Reaction 1X-Ab (1X-Ab): 0%

Structure (SMILES): Cn1cnc2[nH]c(=O)[nH]c(=O)c21 [7-Methyl Xanthine]
- % Cross-Reaction AAMU-Ab (AAMU-Ab): 0%
- % Cross-Reaction 1X-Ab (1X-Ab): 0%

Structure (SMILES): Cc1nc2[nH]c(=O)[nH]c(=O)c2[nH]1 [8-Methyl Xanthine]
- % Cross-Reaction AAMU-Ab (AAMU-Ab): 0%
- % Cross-Reaction 1X-Ab (1X-Ab): 0%

Structure (SMILES): Nc1nc2nc[nH]c2c(=O)[nH]1 [Guanine]
- % Cross-Reaction AAMU-Ab (AAMU-Ab): 0%
- % Cross-Reaction 1X-Ab (1X-Ab): 0%

Structure (SMILES): O=c1[nH]cnc2nc[nH]c12 [Hypoxanthine]
- % Cross-Reaction AAMU-Ab (AAMU-Ab): 0%
- % Cross-Reaction 1X-Ab (1X-Ab): 0%

Structure (SMILES): O=c1cc[nH]c(=O)[nH]1 [Uracil]
- % Cross-Reaction AAMU-Ab (AAMU-Ab): 0%
- % Cross-Reaction 1X-Ab (1X-Ab): 0%

Structure (SMILES): O=c1[nH]c(=O)c2[nH]c(=O)[nH]c2[nH]1 [Uric acid]
- % Cross-Reaction AAMU-Ab (AAMU-Ab): 0%
- % Cross-Reaction 1X-Ab (1X-Ab): 0%

Structure (SMILES): O=c1[nH]c(=O)c2[nH]cnc2[nH]1 [Xanthine]
- % Cross-Reaction AAMU-Ab (AAMU-Ab): 0^a %
- % Cross-Reaction 1X-Ab (1X-Ab): 0%

From patent US20030103901A1, “ELISA kit for the determination of CYP2C19 metabolic phenotypes and uses thereof” (McGill University, priority 2001, published 2003)
